From patent publication US20230333019A1, “TWO-PHOTON FLUORESCENT PROBES FOR SIMULTANEOUSLY DETECTING CALCIUM IONS IN ORGANELLES AND LYSOSOMAL PROTONS” (Korea University Research and Business Foundation, priority 2022, published 2023)
Where two headings read alike, the source gives them in different places. Marks after values point to notes of the source that are not given here.

What was measured:
[1] = Fluorescence titration with Ca2+ in calcium calibration buffer (apparent dissociation constant, FEF); assay type: binding; details: for FEF, fluorescence enhancement factor (Fmax-Fmin)/Fmin: one-photon, complexation with Ca2+ in CB
Protocol: (§1) A dissociation constant (Kd) for binding the probe to Ca^2+ was measured using a conventionally known method. Calcium calibration buffers (CBs; 10 mM 3-[N-morpholino]propanesulfonic acid [MOPS], 100 mM KCl, pH 7.2) containing Ca^2+ at concentrations of 0 to 40 μM were prepared using a calcium calibration buffer kit (Biotium, CA, USA). A buffer containing […] or more of Ca^2+ was prepared by adding an appropriate amount of CaCl2 to a MOPS buffer. Probes (BCa-3°mem at a concentration of 0.3 μM and BCa-1 and BCa-2mito at concentrations of 0.1 μM) were added to calcium CB and fluorescence intensity was measured. Each Kd was calculated through a resultant titration curve. In addition, in order to evaluate a fluorescence titration of FHEt-1lyso, the fluorescence intensity was measured by adding FHEt-1lyso probe at a concentration of 0.6 μM in a universal buffer (UB; 0.1 M citric acid, 0.1 M KH2PO4, 0.1 M Na2B4O7, 0.1 M tris[hydroxymethyl]aminomethane, 0.1 M KCl) at pH 4 to 11. The pKa value was calculated through a titration curve.

[2] = Fluorescence quantum yield; assay type: physicochemical
Protocol: Absorption and emission spectra of a two-photon probe (TP probe) were measured using an Agilent 8453 diode array UV-Vis spectrophotometer and a Hitachi fluorescence spectrophotometer F-7000 system using a previously reported method (Chem. Asian J. 2015, 10(10):2240-2249). Fluorescence quantum yield (Φ) was measured by a method used in another study (Anal. Chem. 2011, 83(4):1232-1242) using Coumarin 540A. Two-photon (TP) excitation was implemented using a mode-locked Ti:sapphire laser (Chameleon, 90 MHz, 200 fs; Coherent Inc.).
All of the two-photon probe compounds emitted weak fluorescence at a maximum emission value (4) of 464 to 466 nm and fluorescence quantum yields (0) of 0.027 to 0.063 in CB (10 mM MOPS, 100 mM KCl, pH 7.2). […] The low fluorescence quantum yield (0) values observed with these probes may contribute to efficient photo-induced electron transfer (PeT) from the receptor to the fluorophore (Table 1).

[3] = Metal ion selectivity, relative fluorescence intensity in MOPS buffer; details: for Response to Zn2+ and Mn2+: 100 μM; for Response to Zn2+ and Mn2+ / Response to Mg2+, Fe2+, Cu2+, Co2+: MOPS pH 7.2; for Response to Mg2+, Fe2+, Cu2+, Co2+: Mg2+ 2 mM, Co2+ 100 μM; for Selectivity for Ca2+: versus competing metal ions
Protocol: FIG. 8 is graphs showing relative fluorescence intensities of (a) BCa-1, (b) BCa-2mito, or (c) BCa−3°mem in the presence of 2 mM Mg^2+ or 100 μM Zn^2+, Mn^2+, Fe^2+, Cu^2+, or Co^2+ (black bars) and according to subsequent addition of 100 μM Ca^2+ (red bars) in a MOPS buffer (30 mM 3[N-morpholino]propanesulfonic acid, 100 mM KCl, pH 7.2). At this time, excitation wavelengths are (a) 363 nm, (b) 355 nm, and (c) 350 nm, respectively.

[4] = Two-photon action cross-section (Φδ); assay type: physicochemical; details: for Φδmax, maximum TP action cross-section: 750 nm, excess Ca2+ (BCa probes) or pH 4.3 (FHEt-1lyso), error ±15%; for Φδ values: absence of Ca2+ (BCa-3°mem) / pH 11 (FHEt-1lyso)
Protocol: (§2) Φδ and Φδeff for the probes were evaluated using the fluorescence method as reported in other studies (Chem. Asian J. 2015, 10(10):2240-2249).
To evaluate the brightness of the TPM image, a TP action cross-section (Φδ) was measured by a conventionally known method.

HeLa cells [5] = assay: Effective TP action cross-section (Φδeff) in probe-labeled cells; assay type: cell-based; details: 750 nm
Protocol: as §2

HeLa cells [6] = assay: TPM detection of Ca2+ in plasma membrane; assay type: cell-based
Protocol: HeLa cells were purchased from the Korean Cell Line Bank (Seoul, Korea). The cells were cultured by a method described in previous studies (Chem. Asian J. 2015, 10(10):2240-2249). Before two days of imaging, HeLa cells (5×10^4/mL) were plated on a confocal glass bottom dish (#200350, SPL Life Sciences, Gyonggi-do, Korea). The cells were washed with an aqueous buffer (pH 7.4), a Hank's balanced salt solution (HBSS; LB003-02, WelGene Inc., Gyeongsangbuk-do, Korea), or a Ringer's solution (RB; 124 mM NaCl, 26 mM NaHCO3, 10 mM d-glucose, 1.3 mM MgSO4, 3 mM KCl, 1.25 mM NaH2PO4) unless otherwise specified. Thereafter, the probe (0.5 to 3 μM) and Pluronic® F-127 (0.03%, Sigma-Aldrich, St. Louis, MO, USA) were added to the cells in one of the three aqueous buffers (1.0 mL). The mixture was cultured (incubated) at 37° C. (BCa-1-AM and BCa-2mito-AM) for 40 minutes or at room temperature (RT; BCa-3mem) for 10 minutes. The cells labeled with the probe were washed 3 times with each corresponding buffer before imaging.
(§3) TP microscopy (TPM) images were obtained using spectral confocal and multiphoton microscopy (Leica TCS SP2; Leica). TPM images of probe-labeled HeLa cells were obtained using a Leica TCS SP2 using a conventional method (Chem. Asian J. 2015, 10(10):2240-2249). Time-dependent changes in TPEF intensity were monitored and measured at intervals of 1.6 to 2.0 seconds in the xyt mode upon excitation at 750 nm. To monitor changes in [Ca^2+ ] in the plasma membrane, the cells were washed successively with RB containing 5, 0.1, and 0 mM of EGTA and then incubated with BCa-3mem (2 μM). The TPEF intensity was measured before and after adding CaCl2 (2 mM) to RB and EGTA (2 mM) in distilled water.
First, whether BCa-3mem may detect Ca^2+ in the plasma membrane was evaluated.

HeLa cells [7] = assay: TPM lysosome colocalization with BLT-blue; assay type: cell-based
Text: as §3
Whether FHEt-1lyso may detect H^+ in the lysosome was evaluated. […] Therefore, it was confirmed that FHEt-1lyso had the ability to detect H^+ in the lysosome by targeting the lysosome.

HeLa cells [8] = assay: Dual-color TPM of cytoplasmic Ca2+ and lysosomal pH, monensin; assay type: cell-based; details: monensin 20 μM
Protocol: To simultaneously monitor changes in lysosomal pH and cytoplasmic [Ca^2+], HeLa cells were co-labeled with a mixture of BCa-1-AM (3 μM) and FHEt-1lyso (1 μM). The cells were washed twice with RB, once with RB containing 5 mM EGTA, and twice with RB containing 0.1 mM EGTA. The TPEF intensity of the cells was measured before and after adding monensin (20 μM, Sigma-Aldrich) to EtOH.
Whether BCa-1 and FHEt-1lyso could be used to simultaneously monitor changes in cytoplasmic [Ca^2+ ] and lysosomal pH during dual-color TPM was evaluated. […] Accordingly, it was confirmed that BCa-1 and FHEt-1lyso could be used to simultaneously monitor changes in cytoplasmic [Ca^2+] and lysosomal pH in live cells during dual-color TPM.

[9] = Fluorescence titration of FHEt-1lyso against pH in universal buffer (pKa); assay type: physicochemical; details: for pKa: universal buffer (UB)
Protocol: as §1
Meanwhile, the fluorescence titration of FHEt-1lyso was performed in UB at pH 4 to 11. […] Therefore, it was confirmed that FHEt-1lyso may detect pH in live cells.

[10] = Water solubility in aqueous buffer; assay type: physicochemical
Protocol: The water solubility of BCa-1, BCa-2mito, BCa−3°mem, and FHEt-1lyso in an aqueous buffer (pH 7.4) was evaluated using a conventional fluorescence technique (Chem. Asian J. 2015, 10(10):2240-2249).

HeLa cells [11] = system: HeLa cells
HeLa cells [12] = assay: TPM detection of cytoplasmic Ca2+, histamine-induced oscillation; assay type: cell-based
Protocol: The mixture was cultured (incubated) at 37° C.
Before and after adding histamine dihydrochloride (100 μM, Sigma-Aldrich) to HBSS, Ca^2+ oscillation was evaluated by TPEF intensity monitoring in HeLa cells labeled with BCa-1-AM (2 μM).
Whether BCa-1 may detect Ca^2+ in the cytoplasm was evaluated. […] The increase and decrease of the TPEF intensity were repeated for 800 seconds, which was consistent with the results of previous histamine-induced Ca oscillation studies. Accordingly, it was confirmed that BCa-1 may target the cytoplasm and detect Ca^2+ in the cytoplasm (FIG. 16).

[13] = in the absence of excess Ca2+, CB pH 7.2
[14] = in the presence of excess Ca2+ (in parentheses)
[15] = from fluorescence titration curve, CB, read-out: Dissociation constant Kd

Φδmax, maximum TP action cross-section [4]	Kd [1, 15]	Compound	FEF, fluorescence enhancement factor (Fmax-Fmin)/Fmin [1]	Fluorescence quantum yield Φ [2, 13]	Fluorescence quantum yield Φ [2, 14]	Response to Zn2+ and Mn2+ [3]	Response to Mg2+, Fe2+, Cu2+, Co2+ [3]	Selectivity for Ca2+ [3]	Φδ values [4]	Φδeff, effective TP action cross-section (HeLa cells [5])	further results
70 10^−50 cm^4s/photon (GM)		CCN(CC)c1ccc(NC(=O)CNc2ccc3c(c2)C(C)(CC(=O)NCCN(C)C)c2cc(C(C)=O)ccc2-3)cc1 (centres unmarked) [FHEt-1lyso]							quite low	21000 GM	Fluorescence quantum yield Φ ([2]; at pH 4.3 (in parentheses)): (0.33); Pearson's colocalization coefficient (A) (HeLa cells [7]): 0.86; TPEF intensity in the lysosome on monensin addition (HeLa cells [8]; 550 to 660 nm): rapidly decreased; FEF, fluorescence enhancement factor (in parentheses) ([9]; TP process, protonation, UB): (24); FEF, fluorescence enhancement factor ([9]; one-photon, protonation, UB): 25; pKa ([9]; TP process, UB, read-out: pKa^TP (in parentheses)): 6.6; pKa ([9]; one-photon fluorescence titration, UB pH 4 to 11, read-out: pKa): 6.5
70 10^−50 cm^4s/photon (GM)	2700 nM	O=C([O-])CN(CC(=O)[O-])c1ccc(NC(=O)CNc2ccc3cc(-c4nc5cc(OCCC[P+](c6ccccc6)(c6ccccc6)c6ccccc6)ccc5o4)ccc3c2)cc1OCCOc1c(F)cccc1N(CC(=O)[O-])CC(=O)[O-].[Br-].[K+].[K+].[K+].[K+] [BCa-2mito]	10	0.049^d	(0.50)	moderate	weak	high		2000 GM	TPEF intensity in the cytoplasm on FCCP treatment (HeLa cells [11]; FCCP): increased temporarily in the cytoplasm and then gradually decreased to a baseline; TPEF intensity in the mitochondria on FCCP treatment (HeLa cells [11]; FCCP): rapidly decreased

More lines, now with the values behind:

Compound	Φδmax, maximum TP action cross-section [4]	Kd [1, 15]	FEF, fluorescence enhancement factor (Fmax-Fmin)/Fmin [1]	Fluorescence quantum yield Φ [2, 13]	Fluorescence quantum yield Φ [2, 14]	Response to Zn2+ and Mn2+ [3]	Response to Mg2+, Fe2+, Cu2+, Co2+ [3]	Selectivity for Ca2+ [3]	Φδ values [4]	Φδeff, effective TP action cross-section (HeLa cells [5])	further results
O=C([O-])CN(CC(=O)[O-])c1ccc(NC(=O)CNc2ccc3cc(-c4nc5ccccc5o4)ccc3c2)cc1OCC(=O)N1CCOCC1.[K+].[K+] [BCa-3°mem]	60 10^−50 cm^4s/photon (GM)		26	0.027^d	(0.72)	moderate	weak	high	quite low	4800 GM	FEF, fluorescence enhancement factor (in parentheses) ([1]; TP process, complexation with Ca2+): (25); Kd ([1]; TP process, read-out: Kd^TP): 95000 nM; TPM images in contrast to BCa-3mem (HeLa cells [6]; HeLa cells, 0.5 μM probe): much darker and blurry
CCCCCCOc1ccc2oc(-c3ccc4cc(NCC(=O)Nc5ccc(N(CC(=O)[O-])CC(=O)[O-])c(OCC(=O)N6CCOCC6)c5)ccc4c3)nc2c1.[K+].[K+] [BCa-3mem]										4800 GM	Aqueous solubility [10]: too low; TPEF intensity upon addition of Ca2+ (HeLa cells [6]; Ca2+ 2 mM): increased; TPEF intensity during treatment with EGTA (HeLa cells [6]; EGTA 2 mM): decreased; Persistence of plasma membrane signals (HeLa cells [6]; labeled HeLa cells): at least 1 hour
CC(=O)OCOC(=O)CN(CC(=O)OCOC(C)=O)c1ccc(NC(=O)CNc2ccc3cc(-c4nc5cc(OCCC[P+](c6ccccc6)(c6ccccc6)c6ccccc6)ccc5o4)ccc3c2)cc1OCCOc1c(F)cccc1N(CC(=O)OCOC(C)=O)CC(=O)OCOC(C)=O.[Br-] [BCa-2mito-AM]		2700 nM									Pearson's colocalization coefficient (A) (HeLa cells [11]; with MitoTracker Red): 0.84
COCCOCCOc1ccc2oc(-c3ccc4cc(NCC(=O)Nc5ccc(N(CC(=O)OCOC(C)=O)CC(=O)OCOC(C)=O)c(OCCOc6ccccc6N(CC(=O)OCOC(C)=O)CC(=O)OCOC(C)=O)c5)ccc4c3)nc2c1 [BCa-1-AM]		180 nM									Duration of repeated increase and decrease of TPEF intensity (HeLa cells [12]; after histamine): 800 s; TPEF intensity on adding histamine (HeLa cells [12]; histamine 100 μM, cytoplasm): increased and then decreased; TPEF intensity in the cytoplasm on monensin addition (HeLa cells [8]; 380 to 480 nm): simultaneously increased
